Assay results taken from ChEMBL document CHEMBL5584251, “Design and synthesis of novel and potent allosteric HIV-1 integrase inhibitors with a spirocyclic moiety” (Bioorg Med Chem Lett, 2024).

System: not listed separately
Assay: Permeability of the compound in human Caco-2 cells
Format: ADME, cell-based
Conditions: read-out: permeability

Compound | Papp
Cc1cc(NC(=O)CC(C)C)c2c(c1C(OC(C)(C)C)C(=O)O)[C@]1(CC2)CC[C@@H](C)CC1 (some centres undefined) | 29 ×10⁻⁶ cm/s
Cc1cc(C(=O)NCC(C)C)c2c(c1C(OC(C)(C)C)C(=O)O)[C@]1(CC2)CC[C@@H](C)CC1 (some centres undefined) | 15 ×10⁻⁶ cm/s
Cc1cc(C(=O)NC(C)C)c2c(c1C(OC(C)(C)C)C(=O)O)[C@]1(CC2)CC[C@@H](C)CC1 (some centres undefined) | 13 ×10⁻⁶ cm/s
CNC(=O)c1cc(C)c(C(OC(C)(C)C)C(=O)O)c2c1CC[C@]21CC[C@@H](C)CC1 (some centres undefined) | 8 ×10⁻⁶ cm/s
Cc1cc(C(=O)NC2CCCCC2)c2c(c1C(OC(C)(C)C)C(=O)O)[C@]1(CC2)CC[C@@H](C)CC1 (some centres undefined) | 24 ×10⁻⁶ cm/s
Cc1cc(C(=O)NC2CCCCC2)c2c(c1[C@@H](OC(C)(C)C)C(=O)O)[C@]1(CC2)CC[C@@H](C)CC1 | 20 ×10⁻⁶ cm/s
Cc1cc(C(=O)NC2CCCCC2)c2c(c1[C@H](OC(C)(C)C)C(=O)O)[C@]1(CC2)CC[C@@H](C)CC1 | 20 ×10⁻⁶ cm/s
Cc1cc(C(=O)NC2CCCCCC2)c2c(c1C(OC(C)(C)C)C(=O)O)[C@]1(CC2)CC[C@@H](C)CC1 (some centres undefined) | 30 ×10⁻⁶ cm/s
Cc1cc(C(=O)N(C)C)c2c(c1C(OC(C)(C)C)C(=O)O)[C@]1(CC2)CC[C@@H](C)CC1 (some centres undefined) | 7 ×10⁻⁶ cm/s
Cc1ccc2c(c1C(OC(C)(C)C)C(=O)O)[C@]1(CC2)CC[C@@H](C)CC1 (mixture of isomers) | 48 ×10⁻⁶ cm/s

System: not listed separately
Assay: Metabolic stability in human liver microsome; note: time not given here
Format: ADME
Conditions: microsomes

Compound | Stability
Cc1cc(NC(=O)CC(C)C)c2c(c1C(OC(C)(C)C)C(=O)O)[C@]1(CC2)CC[C@@H](C)CC1 (some centres undefined) | 72%
Cc1cc(C(=O)NC(C)C)c2c(c1C(OC(C)(C)C)C(=O)O)[C@]1(CC2)CC[C@@H](C)CC1 (some centres undefined) | 99%
CNC(=O)c1cc(C)c(C(OC(C)(C)C)C(=O)O)c2c1CC[C@]21CC[C@@H](C)CC1 (some centres undefined) | 100%
Cc1cc(C(=O)NC2CCCCC2)c2c(c1C(OC(C)(C)C)C(=O)O)[C@]1(CC2)CC[C@@H](C)CC1 (some centres undefined) | 94%
Cc1cc(C(=O)NC2CCCCC2)c2c(c1[C@@H](OC(C)(C)C)C(=O)O)[C@]1(CC2)CC[C@@H](C)CC1 | 92%
Cc1cc(C(=O)NC2CCCCC2)c2c(c1[C@H](OC(C)(C)C)C(=O)O)[C@]1(CC2)CC[C@@H](C)CC1 | 91%
Cc1cc(C(=O)NC2CCCCCC2)c2c(c1C(OC(C)(C)C)C(=O)O)[C@]1(CC2)CC[C@@H](C)CC1 (some centres undefined) | 83%
Cc1cc(C(=O)N(C)C)c2c(c1C(OC(C)(C)C)C(=O)O)[C@]1(CC2)CC[C@@H](C)CC1 (some centres undefined) | 97%
Cc1ccc2c(c1C(OC(C)(C)C)C(=O)O)[C@]1(CC2)CC[C@@H](C)CC1 (mixture of isomers) | 57%

System: not listed separately
Assay: MRT in rat at 0.3 mg/kg, iv
Format: ADME, organism-based
Conditions: in vivo

Compound | MRT
Cc1cc(C(=O)NC2CCCCC2)c2c(c1[C@H](OC(C)(C)C)C(=O)O)[C@]1(CC2)CC[C@@H](C)CC1 | 3.6 h

System: not listed separately
Assay: Volume of distribution at steady state in rat at 0.3 mg/kg, iv
Format: ADME, organism-based
Conditions: in vivo, read-out: Vdss

Compound | Vd
Cc1cc(C(=O)NC2CCCCC2)c2c(c1[C@H](OC(C)(C)C)C(=O)O)[C@]1(CC2)CC[C@@H](C)CC1 | 0.57 L/kg

System: not listed separately
Assay: Clearance in rat at 0.3 mg/kg, iv
Format: ADME, organism-based
Conditions: in vivo

Compound | clearance
Cc1cc(C(=O)NC2CCCCC2)c2c(c1[C@H](OC(C)(C)C)C(=O)O)[C@]1(CC2)CC[C@@H](C)CC1 | 2.67 mL/min/kg

System: not listed separately
Assay: Metabolic stability in rat liver microsome; note: time not given here
Format: ADME
Conditions: microsomes

Compound | Stability
Cc1cc(NC(=O)CC(C)C)c2c(c1C(OC(C)(C)C)C(=O)O)[C@]1(CC2)CC[C@@H](C)CC1 (some centres undefined) | 97%
Cc1cc(C(=O)NC(C)C)c2c(c1C(OC(C)(C)C)C(=O)O)[C@]1(CC2)CC[C@@H](C)CC1 (some centres undefined) | 96%
CNC(=O)c1cc(C)c(C(OC(C)(C)C)C(=O)O)c2c1CC[C@]21CC[C@@H](C)CC1 (some centres undefined) | 98%
Cc1cc(C(=O)NC2CCCCC2)c2c(c1C(OC(C)(C)C)C(=O)O)[C@]1(CC2)CC[C@@H](C)CC1 (some centres undefined) | 99%
Cc1cc(C(=O)NC2CCCCC2)c2c(c1[C@@H](OC(C)(C)C)C(=O)O)[C@]1(CC2)CC[C@@H](C)CC1 | 100%
Cc1cc(C(=O)NC2CCCCC2)c2c(c1[C@H](OC(C)(C)C)C(=O)O)[C@]1(CC2)CC[C@@H](C)CC1 | 100%
Cc1cc(C(=O)NC2CCCCCC2)c2c(c1C(OC(C)(C)C)C(=O)O)[C@]1(CC2)CC[C@@H](C)CC1 (some centres undefined) | 87%
Cc1cc(C(=O)N(C)C)c2c(c1C(OC(C)(C)C)C(=O)O)[C@]1(CC2)CC[C@@H](C)CC1 (some centres undefined) | 94%
Cc1ccc2c(c1C(OC(C)(C)C)C(=O)O)[C@]1(CC2)CC[C@@H](C)CC1 (mixture of isomers) | 51%

System: not listed separately
Assay: Oral bioavailability in rat at 3 mg/kg
Format: ADME, organism-based
Conditions: in vivo

Compound | bioavailability
Cc1cc(C(=O)NC2CCCCC2)c2c(c1[C@H](OC(C)(C)C)C(=O)O)[C@]1(CC2)CC[C@@H](C)CC1 | 64%

System: Human immunodeficiency virus 1
Assay: Antiviral activity against wild type HIV-1 NL4-3 infected in human MT4 cells assessed as reduction in viral replication
Format: functional, organism-based
Conditions: Human immunodeficiency virus 1, NL4-3, MT4

Compound | EC50
Cc1ccc2c(c1C(OC(C)(C)C)C(=O)O)[C@]1(CC[C@H](C)CC1)CC2=O (some centres undefined) | 3200 nM
Cc1cc(NC(=O)CC(C)C)c2c(c1C(OC(C)(C)C)C(=O)O)[C@]1(CC2)CC[C@@H](C)CC1 (some centres undefined) | 30 nM
Cc1cc(C(=O)NCC(C)C)c2c(c1C(OC(C)(C)C)C(=O)O)[C@]1(CC2)CC[C@@H](C)CC1 (some centres undefined) | 33 nM
COC1C[C@]2(CC[C@@H](C)CC2)c2c1ccc(C)c2C(OC(C)(C)C)C(=O)O (some centres undefined) | 2300 nM
Cc1cc(C(=O)NC(C)C)c2c(c1C(OC(C)(C)C)C(=O)O)[C@]1(CC2)CC[C@@H](C)CC1 (some centres undefined) | 110 nM
Cc1ccc2c(c1C(OC(C)(C)C)C(=O)O)[C@]1(CC[C@H](C)CC1)CC2O (some centres undefined) | 15000 nM
CNC(=O)c1cc(C)c(C(OC(C)(C)C)C(=O)O)c2c1CC[C@]21CC[C@@H](C)CC1 (some centres undefined) | 560 nM
Cc1cc(C(=O)NC2CCCCC2)c2c(c1C(OC(C)(C)C)C(=O)O)[C@]1(CC2)CC[C@@H](C)CC1 (some centres undefined) | 21 nM
Cc1cc(C(=O)NC2CCCCC2)c2c(c1[C@@H](OC(C)(C)C)C(=O)O)[C@]1(CC2)CC[C@@H](C)CC1 | 110 nM
Cc1cc(C(=O)NC2CCCCC2)c2c(c1[C@H](OC(C)(C)C)C(=O)O)[C@]1(CC2)CC[C@@H](C)CC1 | 7.4 nM
Cc1cc(C(=O)NC2CCCCCC2)c2c(c1C(OC(C)(C)C)C(=O)O)[C@]1(CC2)CC[C@@H](C)CC1 (some centres undefined) | 21 nM
Cc1cc(C(=O)N(C)C)c2c(c1C(OC(C)(C)C)C(=O)O)[C@]1(CC2)CC[C@@H](C)CC1 (some centres undefined) | 2600 nM
Cc1ccc2c(c1C(OC(C)(C)C)C(=O)O)[C@]1(CC2)CC[C@@H](C)CC1 (mixture of isomers) | 5300 nM
Cc1ccc2c(c1C(OC(C)(C)C)C(=O)O)[C@]1(CCC2)CC[C@@H](C)CC1 (mixture of isomers) | 4000 nM
Cc1cn([C@H]2C[C@H](N=[N+]=[N-])[C@@H](CO)O2)c(=O)[nH]c1=O [ZIDOVUDINE] | 29.9 nM

System: Human immunodeficiency virus 1
Assay: Antiviral activity against HIV-1 T125A infected in human MT4 cells assessed as reduction in viral replication
Format: functional, organism-based
Conditions: Human immunodeficiency virus 1, T125A

Compound | EC50
Cc1cc(NC(=O)CC(C)C)c2c(c1C(OC(C)(C)C)C(=O)O)[C@]1(CC2)CC[C@@H](C)CC1 (some centres undefined) | 940 nM
Cc1cc(C(=O)NCC(C)C)c2c(c1C(OC(C)(C)C)C(=O)O)[C@]1(CC2)CC[C@@H](C)CC1 (some centres undefined) | 3300 nM
Cc1cc(C(=O)NC(C)C)c2c(c1C(OC(C)(C)C)C(=O)O)[C@]1(CC2)CC[C@@H](C)CC1 (some centres undefined) | 2700 nM
CNC(=O)c1cc(C)c(C(OC(C)(C)C)C(=O)O)c2c1CC[C@]21CC[C@@H](C)CC1 (some centres undefined) | 9900 nM
Cc1cc(C(=O)NC2CCCCC2)c2c(c1C(OC(C)(C)C)C(=O)O)[C@]1(CC2)CC[C@@H](C)CC1 (some centres undefined) | 130 nM
Cc1cc(C(=O)NC2CCCCC2)c2c(c1[C@@H](OC(C)(C)C)C(=O)O)[C@]1(CC2)CC[C@@H](C)CC1 | 1200 nM
Cc1cc(C(=O)NC2CCCCC2)c2c(c1[C@H](OC(C)(C)C)C(=O)O)[C@]1(CC2)CC[C@@H](C)CC1 | 120 nM
Cc1cc(C(=O)NC2CCCCCC2)c2c(c1C(OC(C)(C)C)C(=O)O)[C@]1(CC2)CC[C@@H](C)CC1 (some centres undefined) | 580 nM
Cc1cc(C(=O)N(C)C)c2c(c1C(OC(C)(C)C)C(=O)O)[C@]1(CC2)CC[C@@H](C)CC1 (some centres undefined) | > 6000 nM
Cc1ccc2c(c1C(OC(C)(C)C)C(=O)O)[C@]1(CC2)CC[C@@H](C)CC1 (mixture of isomers) | > 6000 nM
Cc1cn([C@H]2C[C@H](N=[N+]=[N-])[C@@H](CO)O2)c(=O)[nH]c1=O [ZIDOVUDINE] | 38.9 nM

Molecular target: Human immunodeficiency virus type 1 integrase (Human immunodeficiency virus 1, UniProt Q7ZJM1)
Sequence (Q7ZJM1 whole entry): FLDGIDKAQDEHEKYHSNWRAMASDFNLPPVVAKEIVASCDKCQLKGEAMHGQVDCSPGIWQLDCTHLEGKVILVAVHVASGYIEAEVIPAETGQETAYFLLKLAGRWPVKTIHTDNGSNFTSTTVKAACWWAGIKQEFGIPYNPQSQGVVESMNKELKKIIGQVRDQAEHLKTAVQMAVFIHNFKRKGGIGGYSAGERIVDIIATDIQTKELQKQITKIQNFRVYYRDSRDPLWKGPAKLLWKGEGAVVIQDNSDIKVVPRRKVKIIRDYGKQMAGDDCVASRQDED
Assay: Allosteric inhibition of HIV-1 integrase by ELISA based IN-DNA assembly/Strand transfer assay
Conditions: not given

Compound | IC50
Cc1ccc(-c2c([C@H](OC(C)(C)C)C(=O)O)c(C)nc3ccccc23)cc1C | 12 nM
Cc1ccc2c(c1C(OC(C)(C)C)C(=O)O)[C@]1(CC[C@H](C)CC1)CC2=O (some centres undefined) | 490 nM
Cc1cc(NC(=O)CC(C)C)c2c(c1C(OC(C)(C)C)C(=O)O)[C@]1(CC2)CC[C@@H](C)CC1 (some centres undefined) | 2.2 nM
Cc1cc(C(=O)NCC(C)C)c2c(c1C(OC(C)(C)C)C(=O)O)[C@]1(CC2)CC[C@@H](C)CC1 (some centres undefined) | 5.7 nM
COC1C[C@]2(CC[C@@H](C)CC2)c2c1ccc(C)c2C(OC(C)(C)C)C(=O)O (some centres undefined) | 53 nM
Cc1cc(C(=O)NC(C)C)c2c(c1C(OC(C)(C)C)C(=O)O)[C@]1(CC2)CC[C@@H](C)CC1 (some centres undefined) | 20 nM
Cc1ccc2c(c1C(OC(C)(C)C)C(=O)O)[C@]1(CC[C@H](C)CC1)CC2O (some centres undefined) | 430 nM
CNC(=O)c1cc(C)c(C(OC(C)(C)C)C(=O)O)c2c1CC[C@]21CC[C@@H](C)CC1 (some centres undefined) | 160 nM
Cc1cc(C(=O)NC2CCCCC2)c2c(c1C(OC(C)(C)C)C(=O)O)[C@]1(CC2)CC[C@@H](C)CC1 (some centres undefined) | 2 nM
Cc1cc(C(=O)NC2CCCCC2)c2c(c1[C@@H](OC(C)(C)C)C(=O)O)[C@]1(CC2)CC[C@@H](C)CC1 | 8.3 nM
Cc1cc(C(=O)NC2CCCCC2)c2c(c1[C@H](OC(C)(C)C)C(=O)O)[C@]1(CC2)CC[C@@H](C)CC1 | 1.4 nM
Cc1cc(C(=O)NC2CCCCCC2)c2c(c1C(OC(C)(C)C)C(=O)O)[C@]1(CC2)CC[C@@H](C)CC1 (some centres undefined) | 1.8 nM
Cc1cc(C(=O)N(C)C)c2c(c1C(OC(C)(C)C)C(=O)O)[C@]1(CC2)CC[C@@H](C)CC1 (some centres undefined) | 1800 nM
Cc1ccc2c(c1C(OC(C)(C)C)C(=O)O)[C@]1(CC2)CC[C@@H](C)CC1 (mixture of isomers) | 54 nM
Cc1ccc2c(c1C(OC(C)(C)C)C(=O)O)[C@]1(CCC2)CC[C@@H](C)CC1 (mixture of isomers) | 50 nM

System: not listed separately
Assay: Half life in rat at 0.3 mg/kg, iv
Format: ADME, organism-based
Conditions: in vivo

Compound | half-life
Cc1cc(C(=O)NC2CCCCC2)c2c(c1[C@H](OC(C)(C)C)C(=O)O)[C@]1(CC2)CC[C@@H](C)CC1 | 4.2 h
